Assay results taken from ChEMBL document CHEMBL6127153, “Hybrids of Membrane-Translocating Antimicrobial Peptides Show Enhanced Activity through Membrane Permeabilization” (ACS Med Chem Lett, 2024).
≈ marks a conversion by molar mass, not a printed value. Calls of active or inactive are those of the source. The rule behind the calls is not given here.

Assays:
Escherichia coli = experiment: Antibacterial activity against Escherichia coli Top10 assessed as inhibition of bacterial growth at 100 uM incubated for 3 hrs by radial diffusion assay; format: functional, organism-based
HEK293 = experiment: Cytotoxicity against HEK293 cells assessed as effect on cell metabolic activity at 18.2 uM incubated for overnight by MTS assay; format: toxicity, cell-based; conditions: human, hek293, 18.2 µM
Bacillus subtilis [1] = experiment: Antibacterial activity against Bacillus subtilis ATCC6051 assessed as inhibition of bacterial growth at 100 uM incubated for 3 hrs by radial diffusion assay; format: functional, organism-based
Cell membrane [2] = experiment: Induction of membrane permeabilization in Escherichia coli assessed as increase in fluorescence intensity at 2 uM by PI staining based fluorescence spectrophotometric analysis; format: subcellular
Cell membrane [3] = experiment: Induction of membrane translocation in Escherichia coli spheroplasts assessed as increase in fluorescence intensity using FITC-labeled compound by confocal microscopy; format: subcellular
Bacillus subtilis [4] = experiment: Antibacterial activity against Bacillus subtilis ATCC6051 assessed as inhibition of bacterial growth incubated for 1 hr followed by TSB addition and measured after 18 to 24 hrs by microbroth dilution assay; format: functional; conditions: time 19-25 hrs

Activity (Cell membrane [2])	Activity (Cell membrane [3])	MIC (Bacillus subtilis [4]) [µM]	Compound	Activity (Escherichia coli)	Activity (HEK293)	Activity (Bacillus subtilis [1])
Active	inactive		CC[C@H](C)[C@H](NC(=O)[C@H](CCCNC(=N)N)NC(=O)[C@@H](NC(=O)[C@H](CCCCN)NC(=O)[C@H](CCCCN)NC(=O)[C@H](CC(N)=O)NC(=O)[C@H](CC(=O)O)NC(=O)[C@H](CCCNC(=N)N)NC(=O)[C@H](C)NC(=O)[C@@H]1CCCN1C(=O)[C@H](CCCCN)NC(=O)[C@H](CCCNC(=N)N)NC(=O)[C@H](CC(C)C)NC(=O)[C@H](CC(C)C)NC(=O)[C@H](CCCNC(=N)N)NC(=O)[C@H](Cc1cnc[nH]1)NC(=O)[C@@H](NC(=O)[C@H](CCCNC(=N)N)NC(=O)CNC(=O)[C@@H](NC(=O)[C@@H]1CCCN1C(=O)[C@H](Cc1c[nH]c2ccccc12)NC(=O)[C@H](CCC(N)=O)NC(=O)[C@H](CC(C)C)NC(=O)CNC(=O)[C@H](C)NC(=O)[C@H](CCCNC(=N)N)NC(=O)[C@H](CO)NC(=O)[C@H](CO)NC(=O)[C@H](CCCNC(=N)N)NC(=O)[C@@H](N)[C@@H](C)O)C(C)C)C(C)C)[C@@H](C)O)C(=O)N[C@@H](Cc1c[nH]c2ccccc12)C(=O)N1CCC[C@H]1C(=O)N[C@@H](CCCNC(=N)N)C(=O)N[C@@H](Cc1cnc[nH]1)C(=O)N[C@@H](CC(C)C)C(=O)N[C@@H](CCC(N)=O)C(=O)N[C@@H](CC(C)C)C(=O)N[C@@H](C)C(=O)N[C@H](C(=O)N[C@@H](CCCNC(=N)N)C(=O)N[C@@H](CC(N)=O)C(=O)O)C(C)C	Active	Non-Toxic	Active
Active	Active		CC[C@H](C)[C@H](NC(=O)[C@H](CCCNC(=N)N)NC(=O)[C@@H](NC(=O)[C@H](CCCCN)NC(=O)[C@H](CCCCN)NC(=O)[C@H](CC(N)=O)NC(=O)[C@H](CC(=O)O)NC(=O)[C@H](CCCNC(=N)N)NC(=O)[C@H](C)N)[C@@H](C)O)C(=O)N[C@@H](Cc1c[nH]c2ccccc12)C(=O)N1CCC[C@H]1C(=O)N[C@@H](CCCNC(=N)N)C(=O)N[C@@H](Cc1cnc[nH]1)C(=O)N[C@@H](CC(C)C)C(=O)N[C@@H](CCC(N)=O)C(=O)N[C@@H](CC(C)C)C(=O)N[C@@H](C)C(=O)N[C@H](C(=O)N[C@@H](CCCNC(=N)N)C(=O)N[C@@H](CC(N)=O)C(=O)N[C@H](C(=O)N[C@@H](CCCNC(=N)N)C(=O)N[C@@H](CO)C(=O)N[C@@H](CO)C(=O)N[C@@H](CCCNC(=N)N)C(=O)N[C@@H](C)C(=O)NCC(=O)N[C@@H](CC(C)C)C(=O)N[C@@H](CCC(N)=O)C(=O)N[C@@H](Cc1c[nH]c2ccccc12)C(=O)N1CCC[C@H]1C(=O)N[C@H](C(=O)NCC(=O)N[C@@H](CCCNC(=N)N)C(=O)N[C@H](C(=O)N[C@@H](Cc1cnc[nH]1)C(=O)N[C@@H](CCCNC(=N)N)C(=O)N[C@@H](CC(C)C)C(=O)N[C@@H](CC(C)C)C(=O)N[C@@H](CCCNC(=N)N)C(=O)N[C@@H](CCCCN)C(=O)O)C(C)C)C(C)C)[C@@H](C)O)C(C)C	Active	Non-Toxic	Active
Active	Active		CC[C@H](C)[C@H](NC(=O)[C@H](CCCNC(=N)N)NC(=O)[C@@H](NC(=O)[C@H](CCCCN)NC(=O)[C@H](CCCCN)NC(=O)[C@H](CC(N)=O)NC(=O)[C@H](CC(=O)O)NC(=O)[C@H](CCCNC(=N)N)NC(=O)[C@H](C)NC(=O)[C@H](C)NC(=O)[C@H](CCCCN)NC(=O)[C@H](CCCNC(=N)N)NC(=O)[C@H](CC(C)C)NC(=O)[C@H](CC(C)C)NC(=O)[C@H](CCCNC(=N)N)NC(=O)[C@H](Cc1cnc[nH]1)NC(=O)[C@@H](NC(=O)[C@H](CCCNC(=N)N)NC(=O)CNC(=O)[C@@H](NC(=O)[C@@H]1CCCN1C(=O)[C@H](Cc1c[nH]c2ccccc12)NC(=O)[C@H](CCC(N)=O)NC(=O)[C@H](CC(C)C)NC(=O)CNC(=O)[C@H](C)NC(=O)[C@H](CCCNC(=N)N)NC(=O)[C@H](CO)NC(=O)[C@H](CO)NC(=O)[C@H](CCCNC(=N)N)NC(=O)[C@@H](N)[C@@H](C)O)C(C)C)C(C)C)[C@@H](C)O)C(=O)N[C@@H](Cc1c[nH]c2ccccc12)C(=O)N1CCC[C@H]1C(=O)N[C@@H](CCCNC(=N)N)C(=O)N[C@@H](Cc1cnc[nH]1)C(=O)N[C@@H](CC(C)C)C(=O)N[C@@H](CCC(N)=O)C(=O)N[C@@H](CC(C)C)C(=O)N[C@@H](C)C(=O)N[C@H](C(=O)N[C@@H](CCCNC(=N)N)C(=O)N[C@@H](CC(N)=O)C(=O)O)C(C)C	Active	Non-Toxic	Active
Active	Active		CC[C@H](C)[C@H](NC(=O)[C@H](CCCNC(=N)N)NC(=O)[C@@H](NC(=O)[C@H](CCCCN)NC(=O)[C@H](CCCCN)NC(=O)[C@H](CC(N)=O)NC(=O)[C@H](CC(=O)O)NC(=O)[C@H](CCCNC(=N)N)NC(=O)[C@H](C)N)[C@@H](C)O)C(=O)N[C@@H](Cc1c[nH]c2ccccc12)C(=O)N1CCC[C@H]1C(=O)N[C@@H](CCCNC(=N)N)C(=O)N[C@@H](Cc1cnc[nH]1)C(=O)N[C@@H](CC(C)C)C(=O)N[C@@H](CCC(N)=O)C(=O)N[C@@H](CC(C)C)C(=O)N[C@@H](C)C(=O)N[C@H](C(=O)N[C@@H](CCCNC(=N)N)C(=O)N[C@@H](CC(N)=O)C(=O)N1CCC[C@H]1C(=O)N[C@H](C(=O)N[C@@H](CCCNC(=N)N)C(=O)N[C@@H](CO)C(=O)N[C@@H](CO)C(=O)N[C@@H](CCCNC(=N)N)C(=O)N[C@@H](C)C(=O)NCC(=O)N[C@@H](CC(C)C)C(=O)N[C@@H](CCC(N)=O)C(=O)N[C@@H](Cc1c[nH]c2ccccc12)C(=O)N1CCC[C@H]1C(=O)N[C@H](C(=O)NCC(=O)N[C@@H](CCCNC(=N)N)C(=O)N[C@H](C(=O)N[C@@H](Cc1cnc[nH]1)C(=O)N[C@@H](CCCNC(=N)N)C(=O)N[C@@H](CC(C)C)C(=O)N[C@@H](CC(C)C)C(=O)N[C@@H](CCCNC(=N)N)C(=O)N[C@@H](CCCCN)C(=O)O)C(C)C)C(C)C)[C@@H](C)O)C(C)C	Active	Non-Toxic	Active
Active	Active		CC[C@H](C)[C@H](NC(=O)[C@H](CCCNC(=N)N)NC(=O)[C@@H](NC(=O)[C@H](CCCCN)NC(=O)[C@H](CCCCN)NC(=O)[C@H](CC(N)=O)NC(=O)[C@H](CC(=O)O)NC(=O)[C@H](CCCNC(=N)N)NC(=O)[C@H](C)N)[C@@H](C)O)C(=O)N[C@@H](Cc1c[nH]c2ccccc12)C(=O)N1CCC[C@H]1C(=O)N[C@@H](CCCNC(=N)N)C(=O)N[C@@H](Cc1cnc[nH]1)C(=O)N[C@@H](CC(C)C)C(=O)N[C@@H](CCC(N)=O)C(=O)N[C@@H](CC(C)C)C(=O)N[C@@H](C)C(=O)N[C@H](C(=O)N[C@@H](CCCNC(=N)N)C(=O)N[C@@H](CC(N)=O)C(=O)N[C@@H](C)C(=O)N[C@H](C(=O)N[C@@H](CCCNC(=N)N)C(=O)N[C@@H](CO)C(=O)N[C@@H](CO)C(=O)N[C@@H](CCCNC(=N)N)C(=O)N[C@@H](C)C(=O)NCC(=O)N[C@@H](CC(C)C)C(=O)N[C@@H](CCC(N)=O)C(=O)N[C@@H](Cc1c[nH]c2ccccc12)C(=O)N1CCC[C@H]1C(=O)N[C@H](C(=O)NCC(=O)N[C@@H](CCCNC(=N)N)C(=O)N[C@H](C(=O)N[C@@H](Cc1cnc[nH]1)C(=O)N[C@@H](CCCNC(=N)N)C(=O)N[C@@H](CC(C)C)C(=O)N[C@@H](CC(C)C)C(=O)N[C@@H](CCCNC(=N)N)C(=O)N[C@@H](CCCCN)C(=O)O)C(C)C)C(C)C)[C@@H](C)O)C(C)C	Active	Non-Toxic	Active
Active	Active		CC[C@H](C)[C@H](NC(=O)[C@H](CCCNC(=N)N)NC(=O)[C@@H](NC(=O)[C@H](CCCCN)NC(=O)[C@H](CCCCN)NC(=O)[C@H](CC(N)=O)NC(=O)[C@H](CC(=O)O)NC(=O)[C@H](CCCNC(=N)N)NC(=O)[C@H](C)NC(=O)[C@H](CCCCN)NC(=O)[C@H](CCCNC(=N)N)NC(=O)[C@H](CC(C)C)NC(=O)[C@H](CC(C)C)NC(=O)[C@H](CCCNC(=N)N)NC(=O)[C@H](Cc1cnc[nH]1)NC(=O)[C@@H](NC(=O)[C@H](CCCNC(=N)N)NC(=O)CNC(=O)[C@@H](NC(=O)[C@@H]1CCCN1C(=O)[C@H](Cc1c[nH]c2ccccc12)NC(=O)[C@H](CCC(N)=O)NC(=O)[C@H](CC(C)C)NC(=O)CNC(=O)[C@H](C)NC(=O)[C@H](CCCNC(=N)N)NC(=O)[C@H](CO)NC(=O)[C@H](CO)NC(=O)[C@H](CCCNC(=N)N)NC(=O)[C@@H](N)[C@@H](C)O)C(C)C)C(C)C)[C@@H](C)O)C(=O)N[C@@H](Cc1c[nH]c2ccccc12)C(=O)N1CCC[C@H]1C(=O)N[C@@H](CCCNC(=N)N)C(=O)N[C@@H](Cc1cnc[nH]1)C(=O)N[C@@H](CC(C)C)C(=O)N[C@@H](CCC(N)=O)C(=O)N[C@@H](CC(C)C)C(=O)N[C@@H](C)C(=O)N[C@H](C(=O)N[C@@H](CCCNC(=N)N)C(=O)N[C@@H](CC(N)=O)C(=O)O)C(C)C	Active	Non-Toxic	Active
Active	Active	18.2 (≈ 45 µg/mL)	CC(C)C[C@H](NC(=O)CNC(=O)[C@H](C)NC(=O)[C@H](CCCNC(=N)N)NC(=O)[C@H](CO)NC(=O)[C@H](CO)NC(=O)[C@H](CCCNC(=N)N)NC(=O)[C@@H](N)[C@@H](C)O)C(=O)N[C@@H](CCC(N)=O)C(=O)N[C@@H](Cc1c[nH]c2ccccc12)C(=O)N1CCC[C@H]1C(=O)N[C@H](C(=O)NCC(=O)N[C@@H](CCCNC(=N)N)C(=O)N[C@H](C(=O)N[C@@H](Cc1cnc[nH]1)C(=O)N[C@@H](CCCNC(=N)N)C(=O)N[C@@H](CC(C)C)C(=O)N[C@@H](CC(C)C)C(=O)N[C@@H](CCCNC(=N)N)C(=O)N[C@@H](CCCCN)C(=O)O)C(C)C)C(C)C	Active	Non-Toxic	Active
